Measured values reported in US9868763B2, “Modulators of protease activated receptors” (The University of Queensland, priority 2011, dated 2018).
Entries after “also recorded” stand apart in the source; their conditions may differ.

Legend:
[1] = tested on: HCHF diet-induced obese rats; assay: Diet-induced obesity and metabolic syndrome, high carbohydrate high fat (HCHF) fed rats; format: in vivo, Wistar rat
Method: Selective PAR2 antagonist 52 was used to evaluate the therapeutic potential of PAR2 antagonism in regulating adiposity, adipose tissue inflammation and metabolic function in rats fed a diet high in carbohydrates and fats (HCHF). Weekly body weight measurements (0-16 weeks) were recorded for Corn Starch CS (●) and High Carbohydrate High Fat (HCHF) (∘)-fed rats (FIG. 13A), as well as for HCHF (∘) and HCHF+PAR2 antagonist 52 (▴)-treated rats (FIG. 13B). In addition, weekly waist circumference measurements were recorded for CS (●), HCHF (∘), HCHF+PAR2 antagonist 52 (▴)-treated rats (FIG. 13 C). FIG. 13 D illustrates […] body composition measurements in CS (▪), HCHF ( ? ), HCHF+PAR2 antagonist 52 (□)-treated rats.
Relative to rats fed a lean diet containing only corn starch (CS), those receiving the HCHF diet for 16 weeks become obese, gaining 54±4% body weight and 206±43% total fat mass, particularly visceral (abdominal) fat from week 0 to 16 (FIGS. 13A-G). FIG. 13F is an image of the abdominal fat pad at 16 weeks in rat given HCHF diet for 16 weeks, but no treatment. […] The increase in PAR2 expression in adipose tissue (FIG. 14A) and its two component fractions, adipocytes and stromal vascular cell (SVC) fractions (FIG. 14B), were all elevated by HCHF feeding, positively correlating with increased adiposity. Local adipose tissue inflammation was also elevated by HCHF feeding (FIG. 15A-F). Findings indicate that a different endogenous signal—saturated fatty acids such as palmitic acid consumed in a HCHF diet—can prime macrophages to increase their expression of PAR2.
The regulation of metabolic parameters by PAR2 antagonist 52 were measured in diet-induced obese rats including systolic blood pressure measurements in CS (●), HCHF (∘) and HCHF+52 (▴)-treated rats (FIG. 16 A), oral glucose tolerance in CS (●), HCHF (∘) and HCHF+PAR2 antagonist 52 (▴)-treated rats (FIG. 16 B), insulin tolerance in CS (●), HCHF (∘), HCHF+PAR2 antagonist 52 (▴)-treated rats (FIG. 16 C), plasma lipid concentrations in CS, HCHF and HCHF+PAR2 antagonist 52-treated rats (FIG. 16 D and plasma liver enzymes in CS, HCHF and HCHF+52-treated rats (FIG. 16 E, *P<0.05 vs CS; **P<0.05 vs HCHF).
FIGS. 17A-C show representative images (20× magnification) of hepatocyte ultrastructure and fat deposition in CS (A), HCHF (B) and HCHF+PAR2 antagonist 52 (C)-treated rats. […] FIG. 17E illustrates metabolic genes in rat liver of different groups. […] Expression of mRNA in was normalized against 18s rRNA and fold change was calculated relative to CS samples. Error bars are means±SEM; *P<0.05, **P<0.01, ***P<0.001.
Regulation of cardiovascular structure and function by PAR2 antagonist 52 in diet-induced obese rats was also measured (FIG. 18), including diastolic stiffness constant measurements in CS, HCHF, HCHF+ compound 52-treated rats (FIG. 18A) and echocardiographic characterization of cardiac structure in CS, HCHF (at 8 weeks before treatment), HCHF and HCHF+ compound 52-treated rats FIG. 18B. FIGS. 18C and D show echocardiographic characterization of cardiac function in CS, HCHF (at 8 weeks before treatment), HCHF and HCHF+ compound 52-treated rats. FIGS. 18E-G illustrate vascular organ bath responses for noradrenaline (E), sodium nitroprusside (F) and acetylcholine (G) in CS (●), HCHF (∘) and HCHF+[…] (▾)-treated rats. Representative images (40× magnification) of interstitial collagen deposition in the left ventricle of CS(H), HCHF (I) and HCHF+PAR2 antagonist 52 (J)-treated rats. FIGS. 18 K and L are graphical representations of the area of collagen deposition in perivascular (K) and interstitial (L) region of the left ventricle. *P<0.05 vs CS; **P<0.05 vs HCHF.

PAR2 = target: T1, PAR2 (Homo sapiens, UniProt P55085); assay: PAR2-induced intracellular Ca2+ release in human macrophages; format: cell-based; set-up: endogenous in cells
T1 sequence (P55085 26-397): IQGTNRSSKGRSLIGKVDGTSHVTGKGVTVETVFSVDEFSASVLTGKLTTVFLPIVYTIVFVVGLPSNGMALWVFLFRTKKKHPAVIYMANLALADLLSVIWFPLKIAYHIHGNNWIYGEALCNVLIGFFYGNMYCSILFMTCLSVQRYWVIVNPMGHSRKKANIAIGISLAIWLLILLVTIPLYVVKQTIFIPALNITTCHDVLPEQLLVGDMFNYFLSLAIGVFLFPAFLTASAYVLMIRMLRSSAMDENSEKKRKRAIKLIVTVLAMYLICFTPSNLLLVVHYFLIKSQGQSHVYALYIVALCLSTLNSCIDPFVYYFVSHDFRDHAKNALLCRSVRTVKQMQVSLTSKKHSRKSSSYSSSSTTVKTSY
Source text: Peripheral blood mononuclear cells were isolated from buffy coat (Australian Red Cross, Kelvin Grove, QLD) using Ficoll-paque density centrifugation (GE Healthcare Bio-Science, Uppsala, Sweden). CD14^+ monocytes were positively selected using CD14^+ MACS magnetic beads (Miltenyi Biotech, Auburn, Calif., USA). Monocytes were differentiated to HMDM in complete media using M-CSF (PeptroTech Inc, Rocky Hill, N.J., USA). HMDM were supplemented with 50% fresh complete medium containing CSF-1 on Day 5 after seeding and re-plated for use on Day 7.

CC[C@H](C)[C@@H](NC(=O)[C@H](CC1CCCCC1)NC(=O)c1ccno1)C(=O)N1CCC2(C=Cc3ccccc32)CC1 [Compound 52]
body weight gain ([1]; 10 mg/kg/day oral, weeks 8-16): prevention | metabolic indicators after 16 weeks of HCHF feeding ([1]; 10 mg/kg/day oral, weeks 8-16): attenuated or reversed | total fat mass ([1]; 10 mg/kg/day oral, weeks 8-16): prevention | visceral (abdominal) fat deposition ([1]; 10 mg/kg/day oral, weeks 8-16): prevention | increased steatosis ([1]; HCHF rats): prevented | M1-specific proinflammatory genes in adipose tissue ([1]; HCHF-fed rats): drastic decreased | M2-specific genes (Mcr2, Mgl1, Ym1, Arg1) in adipose tissue ([1]; HCHF-fed rats): restored or upregulated | altered Pparg, Ucp2 and Adipoq genes in retroperitoneal adipose tissue ([1]; HCHF-fed rats): attenuated these changes | altered gene expression in skeletal muscle and pancreas ([1]; HCHF-fed rats): attenuated this altered gene expression | development of diet-induced cardiac fibrosis (collagen deposition) ([1]; HCHF-fed rats): potent inhibitory effect | insulin tolerance test ([1]; HCHF-fed rats): improved responsiveness to insulin; also recorded: comparable insulin sensitivity to untreated CS-fed rats | oral glucose tolerance test ([1]; HCHF-fed rats): improved glucose tolerance | pancreatic genes Glut2 and Beta2 ([1]; suppressed in HCHF-fed rats): restored; also recorded: normalized | liver genes Pparg, Srebf1, Ucp2, Ppargc1a, Cpt and Pnpla2 ([1]; treated versus untreated HCHF rats): upregulation | pancreatic genes Iapp, Atf3, Fas and Id-1 upregulated in HCHF rats ([1]; treatment in vivo): attenuated | elevated triglycerides and systolic blood pressure ([1]; treatment weeks 8-16): except for elevated triglycerides and systolic blood pressure | increase in PAR2 expression in whole adipose, adipocyte and stromovascular cells ([1]; treatment weeks 8-16): prevented | metabolic parameters elevated on HCHF diet (glucose and insulin tolerance, plasma lipids, liver enzymes, cardiac structure and function) ([1]; treatment weeks 8-16): attenuated | PAR2 antagonist potency relative to ENMD-1068 (PAR2): 1000 fold
